Key:
[1] = test system: rat-derived retinal ganglion cells (RGC); assay: Neurite outgrowth inducing effect in culture system of rat-derived retinal ganglion cells; type: cell-based; details: all-trans form content 3 μM, 48 h; FIG. 2 and 3; n=4, Tukey-Kramer
Excerpt: The progress of visual impairment in glaucoma is associated with retinal ganglion cell (RGC) death due to blood flow failure occurring near the optic nerve (Folia Pharmacol. Jpn. 128, 255-258 (2006)). Accordingly, a culture system of rat-derived retinal neurons (Current protocols in Neuroscience 3.22.1-3.22.10, October 2010), which is widely used as one of study tools for optic nerve diseases such as a glaucoma, was used to examine the neurite outgrowth inducing effect of GGA.
Four-day-old Wistar rats (Japan SLC, Inc.) were euthanized by cervical dislocation and the eyeballs were harvested. The harvested eyeballs were immersed in 70% ethanol for 10 seconds and transferred to a Hanks' balanced salt solution containing 100 U/mL penicillin and 100 μg/mL streptomycin. Under a stereoscopic microscope, the corneas, irises, crystalline lenses, and vitreous bodies were removed using scissors for surgery and forceps, and the retinal tissue was harvested. The harvested retinal tissue was transferred to a centrifugation tube containing 5 mL of a basal medium for neuronal cells (Neurobasal, Invitrogen) containing 100 U/mL penicillin, 100 μg/mL streptomycin, a neural cell culture supplement (B27™-Supplement, Invitrogen), 1 μM L-cysteine (Kyowa Hakko Bio) and 15 U/mL papain (Sigma Aldrich) and incubated at 37° C. for 30 minutes. […]

[2] = test system: rat models with glaucoma induced by NMDA; assay: Protective effect for retinal ganglion cells against nerve damage by NMDA (thickness of inner plexiform layer); type: in vivo
Excerpt: In recent years the glutamate analogue NMDA (N-methyl-D-aspartate) has been widely reported to be one of causative agents of neurodegenerative diseases including Alzheimer's disease. In the ophthalmic field, NMDA is considered to be involved in optic nerve damage in glaucoma (Brain Research Bulletin, 81 (2010) 349-358). Accordingly, in this experiment rat models with glaucoma induced by NMDA were used to evaluate the neuroprotective effect of GGA.
To Sprague-Dawley (SD) rats, the all-trans form, the 5Z-mono-cis form and teprenone were separately pre-administered by oral administration (Test Example 1), intravitreal administration (Test Example 2) or ocular instillation administration (Test Example 3) and 5 μL of NMDA was administered into the vitreous body to induce nerve damage. For Test Example 2, a marketed therapeutic eye drop for glaucoma, AIPHAGAN (trade name), was intravitreally administered as a positive control once a day for five days. For each of Test Examples, a base not containing GGA or AIPHAGAN was administered as a control in the same manner as described above.
The dosage and regimen of Test Examples 1 to 3 are shown in Table 1 and the constitution of the base used in each tests are shown in Table 2.
Three days after administration of NMDA, the eyeballs were harvested, fixed with half Karnovsky's fixative for 24 hours, embedded in paraffin, thin sectioned and stained with hematoxylin-eosin (HE) to prepare histopathological sections. The histological sections were observed under an optical microscope and the thickness (μm) of the inner plexiform layer (IPL) of the retina was measured. From the thickness of the inner plexiform layer (IPL) of the retina, the neuroprotective effects of the test preparations were evaluated.

In the case of `CC(=O)CC/C=C(\C)CC/C=C(\C)CC/C=C(\C)CCC=C(C)C` [all-trans form, (5E,9E,13E)-6,10,14,18-tetramethyl-5,9,13,17-nonadecatetrae n-2-one], the “neurite inducing effect (mean length of neurites of RGC) compared with GGA 6:4 and base” value [1] is reported as “significant neurite inducing effect”, the “neuroprotective effect against nerve damage by NMDA compared with base (IPL thickness)” value ([2]; Test Example 1: oral 800 mg/kg, 2 days, once a day, NMDA 4 mM, FIG. 6, Dunnett) is reported as “significant neuroprotective effects” and the “neuroprotective effect against nerve damage by NMDA compared with base (IPL thickness)” value ([2]; Test Example 2: intravitreal 0.05% w/v, 5 days, once a day, NMDA 40 mM, FIG. 7, Tukey-Kramer) is reported as “significant neuroprotective effects”. The “neuroprotective effect compared with AIPHAGAN Ophthalmic Solution 0.1%” value ([2]; Test Example 2: intravitreal 0.05% w/v, 5 days, NMDA 40 mM, FIG. 7) was “significantly superior neuroprotective effect” and the “neuroprotective effect against nerve damage by NMDA compared with base (IPL thickness)” value ([2]; Test Example 3: ocular instillation 1% w/v, 5 days, 5 times per day, NMDA 4 mM, FIG. 9, t-test) was “significant neuroprotective effect”.

Reference: patent US9724312B2, “Agent for the prevention, improvement or treatment of retinal disease” (ROHTO PHARMACEUTICAL CO., LTD., priority 2012, dated 2017)
